# Data published in patent publication US8734787B2, “Drug delivery system” (Erydel S.p.A., priority 2009, dated 2014).
# Experiments:
# [1] = system: erythrocytes; conditions: cited from earlier work
# [2] = system: erythrocytes; assay: Literature: distribution of FK506 in blood and RBC binding capacity; type: in vitro ADME; conditions: calculated
# [3] = 10-12 hours post-dose; cited from earlier work
# [4] = Preliminary binding studies rFKBP12-FK506 (Dot Blot); conditions: 2.5, 5, 10 μg/well protein
# Protocol: the ability of 6His-FKBP12 to bind the FK506 ligand was assessed by a slightly modified Dot Blot analysis. Briefly, 6His-FKBP12 in native conditions was dot-blotted onto a 0.2 μm nitrocellulose membrane at increasing concentrations (2.5, 5, 10 μg/well). Successively, the membrane was subjected to a single incubation step with a solution of Tacrolimus-horseradish peroxidase conjugate (PRO-Trac™ II Tacrolimus 5× Conjugate, DiaSorin, Stillwater, Minn., USA) to allow FKBP12-Tacrolimus binding.
# [5] = system: human erythrocytes; assay: Loading of recombinant FKBP12 into human erythrocytes (cell recovery, corpuscular indices); conditions: at the three tested concentrations (20, 40 and 80 μM)
# Protocol: recombinant FKBP12 was encapsulated into human erythrocytes by means of a procedure of hypotonic dialysis, isotonic resealing and “reannealing” as previously described [Magnani M 1989]. In particular, human red blood cells were obtained from fresh blood collected in heparin from healthy donors and washed with physiologic solution containing Hepes 10 mM (pH 7.4), NaCl 154 mM and Glucose 5 mM to remove leukocytes and platelets. Recovered RBC were re-suspended at 70% haematocrit in physiologic solution, the suspension aliquoted in 3 tubes and rFKBP12 added at increasing concentrations (20, 40, 80 μM/tube). Each erythrocyte suspension was dialysed in dialysis tube with 3.5 kDa cut-off for 90 minutes at 4° C. against 50 volumes of hypotonic solution 60 mOsm containing NaH2PO4 10 mM, NaHCO3 10 mM pH 7.4, glucose 20 mM, GSH 3 mM and ATP 2 mM. At the end of the dialysis step, RBC suspensions were collected and allowed to equilibrate at 37° C. for 5 minutes under gentle stirring. […] RBC corpuscolar indices MCV, Mean Corpuscular Volume, MCH, Mean Corpuscular Haemoglobin and MCHC, Mean Corpuscular Haemoglobin Concentration) were evaluated for both loaded and un-loaded cells at the end of the procedure.
FK506 binding capacity for native RBC [2] [μg/ml RBC 40% Ht],Molecule,binding capacity of RBC [1],fraction in blood associated with erythrocytes [1],fraction in blood associated with lymphocytes [1] [%],fraction in blood associated with plasma [1] [%],therapeutic window [3],ability to bind the FK506 ligand [4],haemolytic effect [5]
0.4,"C=CC[C@@H]1/C=C(\C)C[C@H](C)C[C@H](OC)[C@H]2O[C@@](O)(C(=O)C(=O)N3CCCC[C@H]3C(=O)O[C@H](/C(C)=C/[C@@H]3CC[C@@H](O)[C@H](OC)C3)[C@H](C)[C@@H](O)CC1=O)[C@H](C)C[C@@H]2OC (relative stereo) [FK506, 3S-[3R*[E(1S*,3S*,4S*)],4S*,5R*,8S*,9E,12R*,14R*,15S*,-16R*,18S*, 19S*,26aR*]]-5,6,8,11,12,13,14,15,16,17,18,19,24,25,26,26a-hexadecahydro-5,19-dihydroxy-3-[2-(4-hydroxy-3-methoxycyclohexyl)-1-methylethenyl]-14,16-dimethoxy-4,10,12,18-tetramethyl-8-(2-propenyl)-15,19-epoxy-3H-pyrido[2,1-c][1,4]oxaazacyclotricosine-1,7,20,21(4H,23H)-tetrone mono-hydrate]",around 440 ng/ml of blood,about 85%,0.46,14,5-20 ng/ml whole blood,,
,recombinant FKBP12: N-terminal His-tagged recombinant form of human 12-kDa FK506 Binding Protein expressed in E. coli BL21(DE3),,,,,,able to bind Tacrolimus in a specific and dose-dependent manner,does not appear haemolytic
